Experimental findings from BindingDB's records for PubMed 15050915 (Novartis Institutes for BioMedical Research) are described below.

SMILES strings stand for the structures.

The assay is described as follows: Inhibition of PDK1 (unknown origin).

For the compound `Nc1ncnc2c1c(-c1cccc(OCc3ccccc3)c1)cn2[C@H]1C[C@@H](CN2CCC2)C1`, the IC50 was determined as 4.8 µM.

As usually defined, the IC50 is the midpoint of a concentration-inhibition curve.
